# Experiments:
# Pimephales promelas = assay: 96 h LC50 (-log10 mol/L); higher = more toxic
# Daphnia magna = assay: 48 h LC50 (-log10 mol/L); higher = more toxic
# Tetrahymena pyriformis = assay: 48 h IGC50 (-log10 mol/L); higher = more toxic
SMILES,96 h LC50 (-log10 mol/L) (Pimephales promelas),48 h LC50 (-log10 mol/L) (Daphnia magna),48 h IGC50 (-log10 mol/L) (Tetrahymena pyriformis)
Oc1cc(Cl)c(Cl)cc1Cl,5.27,4.86,5.1
CCCCCCCO,3.51,3.23,3.1
Cc1ccccc1,3.43,3,3.25
CC(O)CC(C)(C)O (stereo unspecified),1.04,1.22,1.05
c1ccc2nc3ccccc3cc2c1,4.89,4.85,4.4
C=CC=O,6.32,5.99,4.89
CCCO,1.12,0.935,1.25
CCO,0.534,0.59,1.01
CC#N,1.61,1.06,0.723
Nc1ccc(Cl)c(Cl)c1Cl,4.74,5.43,4.35
Cc1ccccc1O,3.89,3.86,2.71
O=[N+]([O-])c1ccccc1,3.02,3.62,3.14
COc1cccc(O)c1,3.22,3.48,2.67
Clc1cccc(Cl)c1,4.27,4.3,3.56
CC1=CC(=O)c2ccccc2C1=O,6.2,5.54,4.54
CCCCC(=O)O,3.12,3.36,2.73
CCCCCCCCCc1ccc(O)cc1,5.91,6.06,5.47
Oc1ccccc1,3.5,3.85,2.65
c1ccc(-c2ccccc2)cc1,4.72,4.91,4.05
C=Cc1ccccc1,3.79,3.53,2.98

SMILES,96 h LC50 (-log10 mol/L) (Pimephales promelas),48 h LC50 (-log10 mol/L) (Daphnia magna),48 h IGC50 (-log10 mol/L) (Tetrahymena pyriformis)
O=[N+]([O-])c1ccccc1O,2.94,4.02,3.67
CCCCCC,4.54,4.34,3.72
c1ccc2c(c1)[nH]c1ccccc12,5.25,4.7,3.91
CNc1ccccc1,3.03,5.79,3.06
CCc1ccc(C)nc1,3.17,3.48,2.82
Clc1ccccc1,3.65,3.92,2.87
O=[N+]([O-])c1ccc(O)c([N+](=O)[O-])c1,4.22,4.61,4.06
CC(C)=O,0.854,0.673,0.796
Cc1cc(O)ccc1Cl,4.42,4.85,3.8
O=[N+]([O-])OCC(CO[N+](=O)[O-])O[N+](=O)[O-],4.92,3.85,
ClC1=C(Cl)[C@]2(Cl)[C@H]3[C@H]([C@H](Cl)[C@]4(Cl)O[C@H]34)[C@@]1(Cl)C2(Cl)Cl,8.1,5.51,
CCOP(=S)(OCC)Oc1ccc([N+](=O)[O-])cc1,5.32,8.15,
Cc1ccc(O)cc1,3.67,3.71,2.84
c1ccc(C2CO2)cc1 (stereo unspecified),4,4.02,
Cc1ccccc1C,3.81,3.79,
Cc1cccc([N+](=O)[O-])c1,3.64,4.04,3.42
O=P(O)(O)CCCl,3.05,3.04,
ClCC(Cl)Cl,3.21,3.49,
Nc1c(Cl)c(Cl)nc(C(=O)O)c1Cl,3.64,3.64,
CC(=O)CC(C)=O,2.85,3.32,

# From EPA's aquatic toxicity sets
